In ChEMBL document CHEMBL3272203, “Phosphorus-nitrogen compounds. 22. Synthesis and antitumor activity of arylsulfonylhydrazone analogues” (J Med Chem, 1978):

Key:
[1] = test system: Ehrlich; experiment: Antitumor activity against mouse Ehrlich ascites carcinoma cells allografted in mouse assessed as host survival time at 100 mg/kg administered qd for 6 days beginning 24 hrs after tumor implantation relative to control; type: functional
[2] = test system: Sarcoma-180; experiment: Antitumor activity against mouse Sarcoma 180 cells allografted in mouse assessed as host survival time at 100 mg/kg administered qd for 6 days beginning 24 hrs after tumor implantation relative to control; type: functional
[3] = test system: P388; experiment: Antitumor activity against mouse P388 cells allografted in mouse assessed as host survival time at 100 mg/kg administered qd for 9 days beginning 24 hrs after tumor implantation relative to control; type: functional
[4] = test system: Ehrlich; experiment: Antitumor activity against mouse Ehrlich ascites carcinoma cells allografted in mouse assessed as host survival time at 40 mg/kg administered qd for 6 days beginning 24 hrs after tumor implantation relative to control in presence of 8 mg/kg CuCl2; type: functional
[5] = test system: Sarcoma-180; experiment: Antitumor activity against mouse Sarcoma 180 cells allografted in mouse assessed as host survival time at 40 mg/kg administered qd for 6 days beginning 24 hrs after tumor implantation relative to control in presence of 8 mg/kg CuCl2; type: functional
[6] = test system: P388; experiment: Antitumor activity against mouse P388 cells allografted in mouse assessed as host survival time at 40 mg/kg administered qd for 9 days beginning 24 hrs after tumor implantation relative to control in presence of 8 mg/kg CuCl2; type: functional
[7] = Metal chelating activity of the compound assessed as Fe2+-complex formation by absorbance analysis; type: physicochemical
[8] = Metal chelating activity of the compound assessed as Co2+-complex formation by absorbance analysis; type: physicochemical
[9] = Octanol-water partition coefficient, log P of the compound; type: physicochemical
[10] = Metal chelating activity of the compound assessed as cupric ion complex formation by absorbance analysis; type: physicochemical
[11] = Metal chelating activity of the compound assessed as cupric ion complex formation at drug:cupric chloride ratio of 2:1 by absorbance analysis; type: physicochemical
[12] = test system: Ehrlich; experiment: Antitumor activity against mouse Ehrlich ascites carcinoma cells allografted in mouse assessed as host survival time at 50 mg/kg administered qd for 6 days beginning 24 hrs after tumor implantation relative to control in presence of 8 mg/kg CuCl2; type: functional
[13] = test system: Sarcoma-180; experiment: Antitumor activity against mouse Sarcoma 180 cells allografted in mouse assessed as host survival time at 50 mg/kg administered qd for 6 days beginning 24 hrs after tumor implantation relative to control in presence of 8 mg/kg CuCl2; type: functional
[14] = test system: P388; experiment: Antitumor activity against mouse P388 cells allografted in mouse assessed as host survival time at 50 mg/kg administered qd for 9 days beginning 24 hrs after tumor implantation relative to control in presence of 8 mg/kg CuCl2; type: functional
[15] = Metal chelating activity of the compound assessed as cupric ion complex formation at drug:cupric chloride ratio of 1:1 by absorbance analysis; type: physicochemical

Row | Structure (SMILES) | T/C [1] | T/C [2] | T/C [3] | T/C [4] | T/C [5] | T/C [6] | Activity [7] | Activity [8] | logP [9] | Activity [10] | Activity [11] | T/C [12] | T/C [13] | T/C [14] | Activity [15]
1 | [O-][n+]1ccccc1/C=N/NP(=S)(N/N=C/c1cccc[n+]1[O-])Oc1ccccc1 | 123% | 89% | 103% | 166% | 85% | 89% | Not Active | Not Active | 1.28 | – | – | – | – | – | –
2 | CCOP(=O)(N/N=C/c1cccc[n+]1[O-])OCC | 160% | – | 108% | 98% | – | 78% | Not Active | Not Active | – | Not Active | – | – | – | – | –
3 | O.O=P(O)(N/N=C/c1cccc[n+]1[O-])Oc1ccccc1 | 118% | 107% | – | 164% | 87% | – | Not Active | Active | -0.76 | – | Active | – | – | – | –
4 | O=P(N/N=C/c1ccccn1)(Oc1ccccc1)Oc1ccccc1 | – | – | 117% | – | – | 92% | – | – | – | – | Active | – | – | – | –
5 | CCOP(=S)(N/N=C/c1cccc[n+]1[O-])OCC | 108% | 96% | 111% | 135% | 126% | 73% | Not Active | Not Active | – | – | – | – | – | – | –
6 | S=P(N/N=C/c1ccccn1)(Oc1ccccc1)Oc1ccccc1 | – | – | 102% | – | – | 94% | – | – | – | – | – | – | – | – | –
7 | S=P(N/N=C/c1ccccn1)(N/N=C/c1ccccn1)c1ccccc1 | 190% | 81% | 108% | – | – | – | – | – | – | – | – | 150% | 87% | 95% | –
8 | O.O=P(O)(N/N=C/c1ccccn1)Oc1ccccc1 | 115% | 95% | 103% | 163% | 79% | 99% | Not Active | Active | – | – | – | – | – | – | Active
9 | O=P1(N(CCCl)CCCl)NCCCO1 (centres undefined) [CYCLOPHOSPHAMIDE ANHYDROUS] | – | – | – | – | – | – | – | – | 0.63 | – | – | – | – | – | –
10 | O=P(N/N=C/c1cccc[n+]1[O-])(Oc1ccccc1)Oc1ccccc1 | – | – | 111% | – | – | – | – | – | – | – | – | – | – | 95% | –
11 | [O-][n+]1ccccc1/C=N/NP(=S)(N/N=C/c1cccc[n+]1[O-])c1ccccc1 | 104% | 79% | 114% | – | – | – | Not Active | Not Active | – | – | – | 204% | 106% | 87% | –
12 | [O-][n+]1ccccc1/C=N/NP(=S)(Oc1ccccc1)Oc1ccccc1 | 144% | 93% | 113% | 204% | 106% | 94% | Not Active | Not Active | – | – | – | – | – | – | –
13 | S=P(N/N=C/c1ccccn1)(N/N=C/c1ccccn1)Oc1ccccc1 | 114% | 93% | 87% | 269% | 141% | 97% | – | – | 1.62 | – | – | – | – | – | –
14 | [O-][n+]1ccccc1 | – | – | – | – | – | – | – | – | -1.69 | – | – | – | – | – | –
